Measured values from patent US9849099B2, “Antimicrobial compounds, compositions and methods of use thereof” (WISCONSIN ALUMNI RESEARCH FOUNDATION, priority 2014, dated 2017).
Converted amounts (≈) assume the structure as drawn. “And” between values parts separate entries of the source, which are not always exact repeats. Equal values may be shown once. “Also recorded” adds a separate entry of the source. Read-outs that look alike come from different tables or passages of the source.

Assays:
[1] = system: E. coli anucleate cell strain (SH3210); assay: High throughput anucleate cell assay; type: cell-based, Escherichia coli; details: screen of small molecule libraries
Experimental: Briefly, E. coli anucleate cell strain (SH3210; ΔtrpR5 his λ pXX747) is used in the assay. […] The anucleated cells thus appear fluorescent in the presence of a fluorescent substrate (e.g., DDOAG) for LacZ. The protocol is summarized as follows: • 1. Prepare overnight culture of E. coli anucleate cell strain (SH3210) from LB-ampicillin plates. • 2. Dilute starter culture 1:1000 with liquid LB treated with 50 mg/ml of ampicillin and incubate for approximately 2.5 hr at 37° C. until approximately 0.1 OD600. • 3. Split diluted culture into wells (200 μL) • i. […] Negative control: 1 μL of DMSO • 4. Incubate diluted culture with compounds for approximately 2.5 hr at 42° C. at 300 rpm in a clear plate. • 5. Incubate cultures on ice for approximately 10 min until condensation on the cover disappears. • 6. Measure absorbance at a wavelength of 595 nm. • 7. In a black 96-well plate, add 80 μL of Z-buffer (600 mM Na2HPO4, 40 mM NaH2PO4, 10 mM KCl, 0.1 MgSO4) to each well pre-loaded with the following reagents: • a. Cell lysis solution called Popculture™ (1:5 Popculture™ to buffer). Popculture™ is a buffered mixture of concentrated detergents. • b. […] Shake for 30 s and measure fluorescence at a wavelength of 659 nm. • 13. Normalize the fluorescence measurements by dividing by OD595.

[2] = system: broad panel of human pathogens; assay: MIC against the panel of pathogens; type: cell-based; details: for MICs compared with Compound 1: panel of pathogens
Experimental: (§1) Luria-Bertani (LB) media (10 g/L tryptone, 10 g/L NaCl, 5 g/L yeast extract, pH 7.0) was used to grow all bacterial strains, except Streptococcus pyogenes. Streptococcus pyogenes was grown in Mueller-Hinton broth containing 5% (v/v) sheep blood. All bacterial cultures were grown at 37° C. All the E. coli strains were grown while shaking at 200 rpm, while clinical pathogens were incubated without shaking.
(§2) The MIC of all the strains was determined in LB media except Streptococcus pyogenes, which was grown in Mueller-Hinton media containing 5% (v/v) sheep blood. The micro-dilution method was utilized in 96-well clear flat-bottom plates (100 μL/well) according to the CLSI guidelines. All strains were grown at 37° C. for 16-18 hours in presence of various concentrations of compound. The MIC was determined by a visual inspection and experiments were performed in triplicate.

Pseudomonas aeruginosa [3] = assay: MBC and antibacterial mode; type: cell-based
Experimental: (§3) The antibacterial mode (i.e., bactericidal, bacteriostatic) was determined by calculating the quotient of the MBC and the MIC. Compounds with a quotient >4 are defined as bacteriostatic; if the quotient is lower than 4, compounds are defined as bactericidal. A micro-dilution protocol was used to perform MIC and MBC experiments in triplicate according to the CLSI guidelines. […] The total volume (100 μL) in the wells with no visual growth were plated on 1.5% (w/v) LB agar or 1.5% (w/v) Mueller-Hinton agar with 5% sheep blood and incubated for 22 hours at 37° C.

Klebsiella pneumoniae [4] = assay: MBC and antibacterial mode; type: cell-based
Experimental: as §3

Shigella boydii [5] = assay: MBC and antibacterial mode; type: cell-based
Experimental: as §3

Morganella morganii [6] = assay: MBC and antibacterial mode; type: cell-based
Experimental: as §3

Streptococcus pyogenes [7] = assay: MBC and antibacterial mode; type: cell-based
Experimental: as §3

Salmonella typhimurium [8] = assay: MBC and antibacterial mode; type: cell-based
Experimental: as §3

Edwardsiella tarda [9] = assay: MBC and antibacterial mode; type: cell-based
Experimental: as §3

Staphylococcus aureus [10] = assay: MBC and antibacterial mode; type: cell-based
Experimental: as §3

Vibrio cholerae [11] = assay: MBC and antibacterial mode; type: cell-based
Experimental: as §3

Enterobacter aerogenes [12] = assay: MBC and antibacterial mode; type: cell-based
Experimental: as §3

Acinetobacter baumannii [13] = assay: MBC and antibacterial mode; type: cell-based
Experimental: as §3

Pseudomonas aeruginosa [14] = assay: MIC micro-dilution; type: cell-based
Experimental: as §1, §2

Klebsiella pneumoniae [15] = assay: MIC micro-dilution; type: cell-based
Experimental: as §1, §2

Bacillus subtilis 168 = assay: MIC micro-dilution; type: cell-based; details: Bacillus subtilis, 168
Experimental: as §1, §2

Shigella boydii [16] = assay: MIC micro-dilution; type: cell-based; details: LB media, 37° C., 16-18 hours
Experimental: as §1, §2

Morganella morganii [17] = assay: MIC micro-dilution; type: cell-based
Experimental: as §1, §2

Streptococcus pyogenes [18] = assay: MIC micro-dilution; type: cell-based; details: Mueller-Hinton media containing 5% (v/v) sheep blood, 37° C., 16-18 hours
Experimental: as §1, §2

Salmonella typhimurium [19] = assay: MIC micro-dilution; type: cell-based
Experimental: as §1, §2

Edwardsiella tarda [20] = assay: MIC micro-dilution; type: cell-based
Experimental: as §1, §2

Staphylococcus aureus [21] = assay: MIC micro-dilution; type: cell-based
Experimental: as §1, §2

Vibrio cholerae [22] = assay: MIC micro-dilution; type: cell-based
Experimental: as §1, §2

Enterobacter aerogenes [23] = assay: MIC micro-dilution; type: cell-based
Experimental: as §1, §2

Acinetobacter baumannii [24] = assay: MIC micro-dilution; type: cell-based
Experimental: as §1, §2

E. coli BW25113 ΔtolC = assay: MIC micro-dilution; type: cell-based; details: Escherichia coli, LB media, 37° C., 16-18 hours
Experimental: as §1, §2

E. coli BW25113 = assay: MIC micro-dilution; type: cell-based; details: Escherichia coli; E. coli BW25113; LB media, 37° C., 16-18 hours; read-out: MIC
Experimental: as §1, §2

[25] = LB media, 37° C., 16-18 hours, read-out: MIC
[26] = Salmonella enterica, Salmonella typhimurium, LB media, 37° C., 16-18 hours, read-out: MIC
[27] = Klebsiella aerogenes, Enterobacter aerogenes, LB media, 37° C., 16-18 hours, read-out: MIC

Structure (SMILES): CCCCCCCCCOc1ccc2[nH]cc(CCN)c2c1 [Compound 1, 5-nonyloxytryptamine]
- hit in anucleate cell screen [1]: potent hit
- MIC ([2]; Pseudomonas aeruginosa): 5 to 20 µM
- MIC ([2]; against the pathogens tested, except Pseudomonas aeruginosa, read-out: MIC): 3 to 12 µg/mL
- Antibacterial Mode (Pseudomonas aeruginosa [3]): Bacteriostatic (Compounds with a quotient >4 are defined as bacteriostatic)
- MBC (Pseudomonas aeruginosa [3]): 96 µg/mL (≈ 317 µM)
- MBC/MIC (Pseudomonas aeruginosa [3]): 4
- Antibacterial Mode (Klebsiella pneumoniae [4]): Bactericidal (if the quotient is lower than 4, compounds are defined as bactericidal)
- MBC (Klebsiella pneumoniae [4]): 6 µg/mL (≈ 19.8 µM)
- MBC/MIC (Klebsiella pneumoniae [4]): 1
- Antibacterial Mode (Shigella boydii [5]): Bactericidal (if the quotient is lower than 4, compounds are defined as bactericidal)
- MBC (Shigella boydii [5]): 6 µg/mL (≈ 19.8 µM)
- MBC/MIC (Shigella boydii [5]): 1
- Antibacterial Mode (Morganella morganii [6]): Bactericidal (if the quotient is lower than 4, compounds are defined as bactericidal)
- MBC (Morganella morganii [6]): 24 µg/mL (≈ 79.3 µM)
- MBC/MIC (Morganella morganii [6]): 2
- Antibacterial Mode (Streptococcus pyogenes [7]): Bactericidal (if the quotient is lower than 4, compounds are defined as bactericidal)
- MBC (Streptococcus pyogenes [7]): 24 µg/mL (≈ 79.3 µM)
- MBC/MIC (Streptococcus pyogenes [7]): 1
- Antibacterial Mode (Salmonella typhimurium [8]): Bacteriostatic (Compounds with a quotient >4 are defined as bacteriostatic)
- MBC/MIC (Salmonella typhimurium [8]): 4
- MBC (Salmonella typhimurium [8]; Salmonella enterica): 24 µg/mL (≈ 79.3 µM)
- Antibacterial Mode (Edwardsiella tarda [9]): Bactericidal (if the quotient is lower than 4, compounds are defined as bactericidal)
- MBC (Edwardsiella tarda [9]): 12 µg/mL (≈ 39.7 µM)
- MBC/MIC (Edwardsiella tarda [9]): 2
- Antibacterial Mode (Staphylococcus aureus [10]): Bactericidal (if the quotient is lower than 4, compounds are defined as bactericidal)
- MBC (Staphylococcus aureus [10]): 6 µg/mL (≈ 19.8 µM)
- MBC/MIC (Staphylococcus aureus [10]): 2
- Antibacterial Mode (Vibrio cholerae [11]): Bacteriostatic (Compounds with a quotient >4 are defined as bacteriostatic)
- MBC (Vibrio cholerae [11]): 24 µg/mL (≈ 79.3 µM)
- MBC/MIC (Vibrio cholerae [11]): 4
- Antibacterial Mode (Enterobacter aerogenes [12]): Bacteriostatic (Compounds with a quotient >4 are defined as bacteriostatic)
- MBC/MIC (Enterobacter aerogenes [12]): >4
- MBC (Enterobacter aerogenes [12]; Klebsiella aerogenes): > 96 µg/mL
- Antibacterial Mode (Acinetobacter baumannii [13]): Bactericidal (if the quotient is lower than 4, compounds are defined as bactericidal)
- MBC (Acinetobacter baumannii [13]): 6 µg/mL (≈ 19.8 µM)
- MBC/MIC (Acinetobacter baumannii [13]): 1
- MIC (Pseudomonas aeruginosa [14]): 80 µM and 24 µg/mL
- MIC (Klebsiella pneumoniae [15]): 6 µg/mL (≈ 19.8 µM)
- MIC (Klebsiella pneumoniae [15]; LB media, 37° C., 16-18 hours): 6.0 µg/mL (≈ 19.8 µM)
- MIC (Bacillus subtilis 168): 0.76 µg/mL (≈ 2.51 µM)
- MIC (Shigella boydii [16]): 6.0 µg/mL (≈ 19.8 µM)
- MIC (Shigella boydii [16]; read-out: MIC): 6 µg/mL (≈ 19.8 µM)
- MIC (Morganella morganii [17]): 12 µg/mL (≈ 39.7 µM)
- MIC (Streptococcus pyogenes [18]): 24 µg/mL (≈ 79.3 µM)
- MIC (Salmonella typhimurium [19]; Salmonella enterica, TYPHIMURIUM): 6 µg/mL (≈ 19.8 µM)
- MIC (Salmonella typhimurium [19]; Salmonella typhimurium, LB media, 37° C., 16-18 hours): 6.0 µg/mL (≈ 19.8 µM)
- MIC (Edwardsiella tarda [20]): 6 µg/mL (≈ 19.8 µM)
- MIC (Edwardsiella tarda [20]; LB media, 37° C., 16-18 hours): 6.0 µg/mL (≈ 19.8 µM)
- MIC (Staphylococcus aureus [21]): 3 µg/mL (≈ 9.92 µM)
- MIC (Staphylococcus aureus [21]; LB media, 37° C., 16-18 hours): 3.0 µg/mL (≈ 9.92 µM)
- MIC (Vibrio cholerae [22]): 6 µg/mL (≈ 19.8 µM)
- MIC (Vibrio cholerae [22]; LB media, 37° C., 16-18 hours): 6.0 µg/mL (≈ 19.8 µM)
- MIC (Enterobacter aerogenes [23]; Enterobacter aerogenes, LB media, 37° C., 16-18 hours): 6.0 µg/mL (≈ 19.8 µM)
- MIC (Enterobacter aerogenes [23]; Klebsiella aerogenes): 6 µg/mL (≈ 19.8 µM)
- MIC (Acinetobacter baumannii [24]): 6 µg/mL (≈ 19.8 µM)
- MIC (Acinetobacter baumannii [24]; LB media, 37° C., 16-18 hours): 6.0 µg/mL (≈ 19.8 µM)

Structure (SMILES): CCCCCCCCCCOc1ccc2[nH]cc(CCN)c2c1 [Compound 9]
- MICs compared with Compound 1 [2]: either the same or 2-fold different from 1
- MIC (Pseudomonas aeruginosa [14]; [25]): > 101 µg/mL
- MIC (E. coli BW25113 ΔtolC): 3.2 µg/mL (≈ 10.1 µM)
- MIC (Klebsiella pneumoniae [15]; [25]): 6.3 µg/mL (≈ 19.9 µM)
- MIC (Shigella boydii [16]; read-out: MIC): 3.2 µg/mL (≈ 10.1 µM)
- MIC (Morganella morganii [17]; [25]): > 101 µg/mL
- MIC (Salmonella typhimurium [19]; [26]): 6.3 µg/mL (≈ 19.9 µM)
- MIC (Edwardsiella tarda [20]; [25]): 25 µg/mL (≈ 79 µM)
- MIC (Staphylococcus aureus [21]; [25]): 6.3 µg/mL (≈ 19.9 µM)
- MIC (Vibrio cholerae [22]): 6.3 µg/mL (≈ 19.9 µM)
- MIC (Enterobacter aerogenes [23]; [27]): 13 µg/mL (≈ 41.1 µM)
- MIC (Acinetobacter baumannii [24]; [25]): 6.3 µg/mL (≈ 19.9 µM)
- MIC (E. coli BW25113): 6.3 µg/mL (≈ 19.9 µM)

Structure (SMILES): CC(C)CCCC(C)CCOc1ccc2[nH]cc(CCN)c2c1 (stereo not shown) [Compound 10]
- MICs compared with Compound 1 [2]: either the same or 2× different from Compound 1; also recorded: either the same or 2-fold different from 1
- MIC (Pseudomonas aeruginosa [14]; [25]): 25 µg/mL (≈ 79 µM)
- MIC (E. coli BW25113 ΔtolC): 3.2 µg/mL (≈ 10.1 µM)
- MIC (Klebsiella pneumoniae [15]; [25]): 13 µg/mL (≈ 41.1 µM)
- MIC (Shigella boydii [16]; read-out: MIC): 6.3 µg/mL (≈ 19.9 µM)
- MIC (Morganella morganii [17]; [25]): > 101 µg/mL
- MIC (Salmonella typhimurium [19]; [26]): 6.3 µg/mL (≈ 19.9 µM)
- MIC (Edwardsiella tarda [20]; [25]): 25 µg/mL (≈ 79 µM)
- MIC (Staphylococcus aureus [21]; [25]): 6.3 µg/mL (≈ 19.9 µM)
- MIC (Vibrio cholerae [22]): 6.3 µg/mL (≈ 19.9 µM)
- MIC (Enterobacter aerogenes [23]; [27]): 13 µg/mL (≈ 41.1 µM)
- MIC (Acinetobacter baumannii [24]; [25]): 13 µg/mL (≈ 41.1 µM)
- MIC (E. coli BW25113): 13 µg/mL (≈ 41.1 µM)
